Reference: PMC6979384, “Characterization of the plant homeodomain (PHD) reader family for their histone tail interactions” (Epigenetics & Chromatin, 2020)

What was measured:
Test in all cases: Histone peptide microarray
Type in all cases: binding, human
RAG2 = conditions: for Array Heatmap value (peptide array signal): RAG2, sheet "Array Heatmap", each array performed twice, total n = 4
In short: (§1)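 Recombinant GST-PHD protein at 0.5 μM; 293-member modified histone peptide array; signals averaged from four repeats ± SD.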

KDM5A (3) = conditions: KDM5A (3); for Array Heatmap value (peptide array signal): sheet "Array Heatmap", each array performed twice, total n = 4
In short: as §1

KDM5B (1) = conditions: KDM5B (1); for Array Heatmap value (peptide array signal): sheet "Array Heatmap", each array performed twice, total n = 4
In short: as §1

KDM7A = conditions: KDM7A; for Array Heatmap value (peptide array signal): sheet "Array Heatmap", each array performed twice, total n = 4
In short: as §1

BAZ2B = conditions: BAZ2B; for Array Heatmap value (peptide array signal): sheet "Array Heatmap", each array performed twice, total n = 4
In short: as §1

CHD5 (PCC) = conditions: CHD5 (PCC); for Array Heatmap value (peptide array signal): sheet "Array Heatmap", each array performed twice, total n = 4
In short: as §1

MLL5 = conditions: for Array Heatmap value (peptide array signal): MLL5, sheet "Array Heatmap", each array performed twice, total n = 4
In short: as §1

DIDO1 = conditions: for Array Heatmap value (peptide array signal): DIDO1, sheet "Array Heatmap", each array performed twice, total n = 4
In short: as §1

PHF21A = conditions: PHF21A; for Array Heatmap value (peptide array signal): sheet "Array Heatmap", each array performed twice, total n = 4
In short: as §1

PHF13 = conditions: for Array Heatmap value (peptide array signal): PHF13, sheet "Array Heatmap", each array performed twice, total n = 4
In short: as §1

KDM5B (3) = conditions: KDM5B (3); for Array Heatmap value (peptide array signal): sheet "Array Heatmap", each array performed twice, total n = 4
In short: as §1

ING3 = conditions: for Array Heatmap value (peptide array signal): ING3, sheet "Array Heatmap", each array performed twice, total n = 4
In short: as §1

ING2 = conditions: for Array Heatmap value (peptide array signal): ING2, sheet "Array Heatmap", each array performed twice, total n = 4
In short: as §1

TRIM66 (PB) = conditions: TRIM66 (PB); for Array Heatmap value (peptide array signal): sheet "Array Heatmap", each array performed twice, total n = 4
In short: as §1

SP140L = conditions: SP140L; for Array Heatmap value (peptide array signal): sheet "Array Heatmap", each array performed twice, total n = 4
In short: as §1

KDM5A (1) = conditions: KDM5A (1); for Array Heatmap value (peptide array signal): sheet "Array Heatmap", each array performed twice, total n = 4
In short: as §1

PHF23 = conditions: for Array Heatmap value (peptide array signal): PHF23, sheet "Array Heatmap", each array performed twice, total n = 4
In short: as §1

PHRF1 (RP) = conditions: PHRF1 (RP); for Array Heatmap value (peptide array signal): sheet "Array Heatmap", each array performed twice, total n = 4
In short: as §1

PHF2 = conditions: for Array Heatmap value (peptide array signal): PHF2, sheet "Array Heatmap", each array performed twice, total n = 4
In short: as §1

TAF3 = conditions: for Array Heatmap value (peptide array signal): TAF3, sheet "Array Heatmap", each array performed twice, total n = 4
In short: as §1

CHD5 (PPCC) = conditions: CHD5 (PPCC); for Array Heatmap value (peptide array signal): sheet "Array Heatmap", each array performed twice, total n = 4
In short: as §1

AIRE (PP) = conditions: AIRE (PP); for Array Heatmap value (peptide array signal): sheet "Array Heatmap", each array performed twice, total n = 4
In short: as §1

CHD4 (PPCC) = conditions: CHD4 (PPCC); for Array Heatmap value (peptide array signal): sheet "Array Heatmap", each array performed twice, total n = 4
In short: as §1

MORC3 (CW) = conditions: MORC3 (CW); for Array Heatmap value (peptide array signal): sheet "Array Heatmap", each array performed twice, total n = 4
In short: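 Readout is array binding signal, reported as the mean and standard deviation over four replicates. Each purified GST-fused PHD domain was incubated at 0.5 μM with a library of 293 modified histone peptides.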

ING5 = conditions: for Array Heatmap value (peptide array signal): ING5, sheet "Array Heatmap", each array performed twice, total n = 4
In short: as §1

ING1 = conditions: for Array Heatmap value (peptide array signal): ING1, sheet "Array Heatmap", each array performed twice, total n = 4
In short: as §1

DPF2 (PPC2W2) = conditions: DPF2 (PPC2W2); for Array Heatmap value (peptide array signal): sheet "Array Heatmap", each array performed twice, total n = 4
In short: as §1

KDM4C (TTP) = conditions: KDM4C (TTP); for Array Heatmap value (peptide array signal): sheet "Array Heatmap", each array performed twice, total n = 4
In short: as §1

ING4 = conditions: for Array Heatmap value (peptide array signal): ING4, sheet "Array Heatmap", each array performed twice, total n = 4
In short: as §1

BPTF (PB) = conditions: BPTF (PB); for Array Heatmap value (peptide array signal): sheet "Array Heatmap", each array performed twice, total n = 4
In short: as §1

PHF8 = conditions: for Array Heatmap value (peptide array signal): PHF8, sheet "Array Heatmap", each array performed twice, total n = 4
In short: as §1

[1] = GST-tagged, arrays performed twice, n of 4

Substance: H4K5crK8crK12cr: H4 1-23
- Array Heatmap value (peptide array signal) (RAG2): 0.2029
- Array Heatmap value (peptide array signal) (KDM5A (3)): 0.3558
- Array Heatmap value (peptide array signal) (KDM5B (1)): 0.5237
- Array Heatmap value (peptide array signal) (KDM7A): 0.2744
- Array Heatmap value (peptide array signal) (BAZ2B): 0.3353
- Array Heatmap value (peptide array signal) (CHD5 (PCC)): 0.6269
- Array Heatmap value (peptide array signal) (MLL5): 0.4572
- Array Heatmap value (peptide array signal) (DIDO1): 0.571
- Array Heatmap value (peptide array signal) (PHF21A): 0.3861
- Array Heatmap value (peptide array signal) (PHF13): 0.5013
- Array Heatmap value (peptide array signal) (KDM5B (3)): 0.4017
- Array Heatmap value (peptide array signal) (ING3): 0.3926
- Array Heatmap value (peptide array signal) (ING2): 0.5899
- Array Heatmap value (peptide array signal) (TRIM66 (PB)): 0.525
- Array Heatmap value (peptide array signal) (SP140L): 0.3203
- Array Heatmap value (peptide array signal) (KDM5A (1)): 0.3568
- Array Heatmap value (peptide array signal) (PHF23): 0.4763
- Array Heatmap value (peptide array signal) (PHRF1 (RP)): 0.3292
- Array Heatmap value (peptide array signal) (PHF2): 0.4485
- Array Heatmap value (peptide array signal) (TAF3): 0.2134
- Array Heatmap value (peptide array signal) (CHD5 (PPCC)): 0.4173
- Array Heatmap value (peptide array signal) (AIRE (PP)): 0.3482
- Array Heatmap value (peptide array signal) (CHD4 (PPCC)): 0.5037
- Array Heatmap value (peptide array signal) (MORC3 (CW)): 0.2832
- Array Heatmap value (peptide array signal) (ING5): 0.2562
- Array Heatmap value (peptide array signal) (ING1): 0.4798
- Array Heatmap value (peptide array signal) (DPF2 (PPC2W2)): 0.6037
- Array Heatmap value (peptide array signal) (KDM4C (TTP)): 0.3678
- Array Heatmap value (peptide array signal) (ING4): 0.3713
- Array Heatmap value (peptide array signal) (BPTF (PB)): 0.277
- Array Heatmap value (peptide array signal) (PHF8): 0.292

Substance: H4K5me1: H4 1-23 [Peptide H4K5me1]
- Array Heatmap value (peptide array binding signal) (RAG2; RAG2, GST-tagged, arrays performed twice, n of 4): 0.3031
- Array Heatmap value (peptide array binding signal) (KDM5A (3); [1]): 0.517
- Array Heatmap value (peptide array binding signal) (KDM5B (1); [1]): 0.6332
- Array Heatmap value (peptide array binding signal) (KDM7A; [1]): 0.4052
- Array Heatmap value (peptide array binding signal) (BAZ2B; [1]): 0.543
- Array Heatmap value (peptide array binding signal) (CHD5 (PCC); [1]): 0.8576
- Array Heatmap value (peptide array binding signal) (MLL5; MLL5, GST-tagged, arrays performed twice, n of 4): 0.6366
- Array Heatmap value (peptide array binding signal) (DIDO1; DIDO1, GST-tagged, arrays performed twice, n of 4): 0.8543
- Array Heatmap value (peptide array binding signal) (PHF21A; [1]): 0.5236
- Array Heatmap value (peptide array binding signal) (PHF13; PHF13, GST-tagged, arrays performed twice, n of 4): 0.7061
- Array Heatmap value (peptide array binding signal) (KDM5B (3); [1]): 0.5457
- Array Heatmap value (peptide array binding signal) (ING3; ING3, GST-tagged, arrays performed twice, n of 4): 0.5888
- Array Heatmap value (peptide array binding signal) (ING2; ING2, GST-tagged, arrays performed twice, n of 4): 0.6422
- Array Heatmap value (peptide array binding signal) (TRIM66 (PB); [1]): 0.6456
- Array Heatmap value (peptide array binding signal) (SP140L; [1]): 0.3991
- Array Heatmap value (peptide array binding signal) (KDM5A (1); [1]): 0.5517
- Array Heatmap value (peptide array binding signal) (PHF23; PHF23, GST-tagged, arrays performed twice, n of 4): 0.6043
- Array Heatmap value (peptide array binding signal) (PHRF1 (RP); [1]): 0.5306
- Array Heatmap value (peptide array binding signal) (PHF2; PHF2, GST-tagged, arrays performed twice, n of 4): 0.6413
- Array Heatmap value (peptide array binding signal) (TAF3; TAF3, GST-tagged, arrays performed twice, n of 4): 0.3308
- Array Heatmap value (peptide array binding signal) (CHD5 (PPCC); [1]): 0.6548
- Array Heatmap value (peptide array binding signal) (AIRE (PP); [1]): 0.4948
- Array Heatmap value (peptide array binding signal) (CHD4 (PPCC); [1]): 0.6385
- Array Heatmap value (peptide array binding signal) (MORC3 (CW); [1]): 0.4265
- Array Heatmap value (peptide array binding signal) (ING5; ING5, GST-tagged, arrays performed twice, n of 4): 0.4376
- Array Heatmap value (peptide array binding signal) (ING1; ING1, GST-tagged, arrays performed twice, n of 4): 0.6473
- Array Heatmap value (peptide array binding signal) (DPF2 (PPC2W2); [1]): 0.7706
- Array Heatmap value (peptide array binding signal) (KDM4C (TTP); [1]): 0.5708
- Array Heatmap value (peptide array binding signal) (ING4; ING4, GST-tagged, arrays performed twice, n of 4): 0.5451
- Array Heatmap value (peptide array binding signal) (BPTF (PB); [1]): 0.4183
- Array Heatmap value (peptide array binding signal) (PHF8; PHF8, GST-tagged, arrays performed twice, n of 4): 0.4273

Substance: H4K5proK8proK12pro: H4 1-23
- Array Heatmap value (peptide array signal) (RAG2): 0.2779
- Array Heatmap value (peptide array signal) (KDM5A (3)): 0.4569
- Array Heatmap value (peptide array signal) (KDM5B (1)): 0.629
- Array Heatmap value (peptide array signal) (KDM7A): 0.3949
- Array Heatmap value (peptide array signal) (BAZ2B): 0.5476
- Array Heatmap value (peptide array signal) (CHD5 (PCC)): 0.8593
- Array Heatmap value (peptide array signal) (MLL5): 0.612
- Array Heatmap value (peptide array signal) (DIDO1): 0.7693
- Array Heatmap value (peptide array signal) (PHF21A): 0.5432
- Array Heatmap value (peptide array signal) (PHF13): 0.7138
- Array Heatmap value (peptide array signal) (KDM5B (3)): 0.4906
- Array Heatmap value (peptide array signal) (ING3): 0.5538
- Array Heatmap value (peptide array signal) (ING2): 0.6246
- Array Heatmap value (peptide array signal) (TRIM66 (PB)): 0.6547
- Array Heatmap value (peptide array signal) (SP140L): 0.3966
- Array Heatmap value (peptide array signal) (KDM5A (1)): 0.5265
- Array Heatmap value (peptide array signal) (PHF23): 0.5776
- Array Heatmap value (peptide array signal) (PHRF1 (RP)): 0.4879
- Array Heatmap value (peptide array signal) (PHF2): 0.5444
- Array Heatmap value (peptide array signal) (TAF3): 0.2924
- Array Heatmap value (peptide array signal) (CHD5 (PPCC)): 0.65
- Array Heatmap value (peptide array signal) (AIRE (PP)): 0.5223
- Array Heatmap value (peptide array signal) (CHD4 (PPCC)): 0.656
- Array Heatmap value (peptide array signal) (MORC3 (CW)): 0.3861
- Array Heatmap value (peptide array signal) (ING5): 0.4117
- Array Heatmap value (peptide array signal) (ING1): 0.5929
- Array Heatmap value (peptide array signal) (DPF2 (PPC2W2)): 0.725
- Array Heatmap value (peptide array signal) (KDM4C (TTP)): 0.5585
- Array Heatmap value (peptide array signal) (ING4): 0.5361
- Array Heatmap value (peptide array signal) (BPTF (PB)): 0.4022
- Array Heatmap value (peptide array signal) (PHF8): 0.41
